Source: US20250281439A1, “USE OF L-ASPARTIC ACID BETA-HYDROXAMATE (L-ABH) IN PREPARATION OF DRUG FOR DIABETIC RETINOPATHY (DR) OR RETINOPATHY OF PREMATURITY (ROP)” (Wenzhou Medical University, priority 2024, published 2025)
Entries after “also recorded” stand apart in the source; their conditions may differ.

Legend:
db/db mice [1] = assay: Visual electrophysiological examination (dark and light adaptation) after 18 weeks of gavage; assay type: in vivo; conditions: gavage 20 mg/kg/day, 1 time per day, vs db/db+water
Experimental: (§1) The 3-month-old db/db mice were randomly divided into two groups and subjected to intragastric gavage experiments: • group 1: gavage of water (denoted as db/db+water, 0.06 mL/10 g, 7 mice in total); • group 2: gavage of the L-ABH (denoted as db/db+L-ABH, 20 mg/kg/day, 10 mice in total).
(§2) Each group was gavaged 1 time per day according to the dosage for 18 weeks.
(§3) The 3-month-old wild-type mice were gavaged in the same manner as the group 1 (denoted as WT+water, 0.06 mL/10 g, 6 mice in total).
(1) After the gavage, visual electrophysiological examinations were conducted on the mice in each group.
In FIGS. 2A-2H, (dark adapted 0.01, dark adapted 3.0, dark adapted 10.0 and dark adapted 3.0 oscillatory potentials) show 4 tests under visual electrophysiological dark adaptation. […] In FIGS. 3A-3D, (light adapted 3.0, and light adapted 30 Hz flicker) show 2 tests after visual electrophysiological light adaptation.

db/db mice [2] = assay: OCT experiment (circular and linear scan; RNFL and total retinal thickness); assay type: in vivo; conditions: gavage 20 mg/kg/day, 18 weeks, vs db/db+water
Experimental: as §1, §2, §3
(2) After the gavage, an OCT experiment was conducted.
After the mice were anesthetized, tropicamide eye drops were used to dilate pupils, and after the mice entered deep anesthesia, ofloxacin was used to cover an ocular surface. The mice were placed on a mouse holder, their body position and the position knob were adjusted such that the lens was directly facing a center of mouse pupil. The position was fine-tuned from far to near such that an optic disc was located in a center of fundus image, and a focus was adjusted to make the image clear. A linear scan was conducted, where a linear scan position was moved to the vicinity of the optic disc, parameters and position were fine-tuned such that an OCT image passed through the optic disc and the optic disc was located in the middle, thus obtaining a cross-section of the retina from a temporal side to a nasal side. […]

db/db mice [3] = assay: Retinal Brn3a immunofluorescence (RGC counting); assay type: in vivo; conditions: gavage 20 mg/kg/day, 18 weeks, vs db/db+water
Experimental: as §1, §2, §3
(3) After the gavage, retinal Brn3a immunofluorescence experiment was conducted.
After the mice were euthanized, periocular tissue of the mice was cut open, their eyeball of the mice was cut out and placed in a 5 mL centrifuge tube containing 4% PFA to allow fixation for 24 h, and the retinas were separated and cut into 4 petal shapes. The retinas were washed with PBS, permeabilized for 45 min, and blocked for 2 h. After removing a blocking solution, a Brn3a antibody was diluted (1:100) with PBS buffer containing 1% BSA, incubated overnight at 4° C., and then washed with the PBS. […] LSM 880 confocal laser microscope was used to take a full retinal mosaic, and then fluorescent images of the inner, middle, and outer 3 areas were intercepted on the 4 petals of the retina, that is, 12 areas of one retina were intercepted to allow fluorescence counting statistics. […]

db/db mice [4] = assay: Retinal digest preparation, PAS staining (endothelial cells, pericytes, acellular capillaries); assay type: in vivo; conditions: gavage 20 mg/kg/day, 18 weeks, vs db/db+water
Experimental: as §1, §2, §3
(4) After the gavage, the retinal digest preparation stretched preparation-PAS staining experiment was conducted.
After the mice were euthanized, eyeballs of the mice were removed and fixated with 4% PFA for 48 h, the retinas of the mice were separated and rinsed in ddH2O on a shaker at room temperature overnight, a fixative was removed, and the retinas were cut in half. The retinas were placed in 3% trypsin (prepared in 0.2 M Tris buffer, pH=7.4) and digested at 37° C. for 1 h. […] The nuclei were washed with running water, dehydrated routinely, transparentized with xylene, sealed with neutral gum, and then 6 to 8 fields of view were randomly selected for counting and observation under a microscope, and the number of pericytes and endothelial cells was calculated.

[5] = tested on: neonatal mice, hypoxia-induced retinopathy model; assay: OIR experiment, hypoxia-induced retinopathy model (isolectin staining, area of retinal angiogenesis); assay type: in vivo; conditions: intraperitoneal 7 mg/kg/day, 1 time a day from day 12 after birth, 5 days, vs OIR+Saline
Experimental: In this example, the effect of L-ABH was verified in a hypoxia-induced model. The hypoxia-induced retinopathy model could be used as a model of ROP and a late-stage model of DR. OIR experiment: neonatal mice on the 7th day after birth and mother mice were randomly divided into 3 groups. Two groups of the neonatal mice and the mother mice were placed in an OIR oxygen chamber. The neonatal mice in group 1 were intraperitoneally injected with L-ABH (7 mg/kg/day) 1 time a day from the 12th day after birth for 5 consecutive days, recorded as OIR+L-ABH (ip), with a total of 5 mice. While the neonatal mice in group 2 were intraperitoneally injected with an equal amount of saline every day from the 12th day, recorded as OIR+Saline, with a total of 5 mice. After 5 day of hyperoxia, hypoxia-induced models were established in the group 1 and the group 2. The mice in group 3 were fed normally and intraperitoneally injected with an equal volume of saline every day, recorded as WT, with a total of 5 mice. After 5 day of hyperoxia, the neonatal and the mother mice were taken out from the oxygen chamber. The neonatal and the mother mice in the 3 groups were raised normally for 5 days, then the neonatal mice were sacrificed, subjected to stretched preparation and stained with isolectin, and then analyzed for the area of retinal angiogenesis. […]

[6] = Toxicity and tolerability of L-ABH on long-term oral administration; assay type: in vivo; conditions: no test described
Text: L-aspartic acid β-hydroxamate (L-ABH) is a reversible serine racemase (SR) inhibitor. […] However, there is no clear report on whether the L-ABH could be used for retinal neuroprotection as well as prevention and treatment of retinopathy.

db/db mice [7] = conditions: previous studies, cited from earlier work
[8] = oral 20 mg/kg/d for three months (patent ZL 202110755406.0); 20 mg/kg/day; cited from earlier work

Compound: N[C@@H](CC(=O)NO)C(=O)O [L-ABH, L-aspartic acid β-hydroxamate]
- functions of bipolar cells and amacrine cells in the retina (a-, b-wave, oscillatory potential, N1-P1 amplitudes) (db/db mice [1]): significantly improve the functions of bipolar cells and amacrine cells
- degeneration of nerve fiber layer and medial nasal retina (RNFL thickness, total retinal thickness by OCT) (db/db mice [2]): protect the degeneration of a nerve fiber layer and a medial nasal retina
- RGCs (Brn3a fluorescence counting) in inner, middle and outer retina (db/db mice [3]): significantly protect the RGCs in the middle and outer retina
- microvascular lesions (ratio of endothelial cells to pericytes, amount of acellular capillaries) (db/db mice [4]): significantly reduce the microvascular lesions
- hypoxia-induced retinal angiogenesis (neovascular area, avascular area) [5]: significantly reduce the hypoxia-induced retinal angiogenesis
- nausea, vomiting, diarrhea, lactic acidosis ([6]; long-term use): does not cause nausea, vomiting, diarrhea, or lactic acidosis
- irritating effect on gastrointestinal tract [6]: no irritating effect on gastrointestinal tract
- random blood glucose (db/db mice [7]; animal model of type II diabetes): reduce random blood glucose
- oral glucose tolerance test (OGTT) (db/db mice [7]): significantly improve oral glucose tolerance test (OGTT)
- sensitivity of insulin tolerance test (ITT) (db/db mice [7]): increase sensitivity of insulin tolerance test (ITT)
- hepatotoxicity and nephrotoxicity [8]: not hepatotoxic or nephrotoxic; also recorded: without hepatotoxicity and nephrotoxicity
